US4745223A, “Mono-tertiary-alkylated toluenediamine and derivatives” (Air Products and Chemicals, Inc., priority 1985, dated 1988)

Assays:
[1] = Pot life test of chain extenders in polyurethane-urea formulation; conditions: 50° C., log (relative viscosity) = I + A*(time) + B*(time)**2 + C*(time)**3
Description: A series of polyurethane-urea elastomers utilizing various chain extenders was prepared and evaluated in a pot life test system for the purpose of determining the reactivity of the chain extenders in standard urethane formulations relative to one another. The polyurethane-urea elastomers were formulated by reacting a prepolymer of poly(1,4-oxytetramethylene)glycol end-capped with 2,4-toluene diisocyanate, the prepolymer having an NCO content generally from 5-7%, with the test candidate chain extender aromatic diamine and a diol. The nominal stoichiometric equivalent ratio of isocyanate to diamine chain extender to diol for each sample is 2:1:1.
The test system for measuring pot life comprised a heated test chamber for holding 7 grams of test sample at a constant temperature (50° C.) and was equipped with a vertical perforated piston. This piston moves up and down through the test sample in timed relationship. (The temperature rise due to the exothermic reaction is discounted.) The force necessary to move the piston through the polymer sample is measured in arbitrary units, and the relationship of the force is plotted as a function of time. The force-pot life relationship of the urethane system during cure then is correlated to known force-viscosity relationships for the urethane-urea systems.
The coefficients apply to the equation:
log (viscosity)=I+A(time)+B(time)^2 +C(time)^3.
The coefficient of the first power term ("A") is a "quasi" reaction rate constant measuring initial reactivity. Smaller values in the quasi rate constant (A) indicate longer and desirable pot lives. The value T-5000 is the time in which the reaction product has a relative viscosity of 5000 units. Even though the value is an arbitrary value, that value is relevant for use in determining the performance of the test candidate in a RIM process or cast elastomers process. For injection molding of modest size parts, T-5000 may be about 2.5 minutes; whereas, the molding of large or intricate parts may require a T-5000 of greater than 5 minutes, e.g., 10 to 40 minutes for hand casting.

[2] = tested on: Salmonella strain TA98; experiment: Ames mutagenic assay, strain TA98; assay type: cell-based; conditions: TA98, (+) with metabolic activation
Description: (§1) A series of chain extenders was tested in the Ames mutagenic assay using five strains of Salmonella bacteria without (-) and with (+) metabolic activation. Table 6 provides the results of various test compounds including a variety of known aromatic diamine chain extenders against these five strains of Salmonella bacteria. The data are presented as the quantity of test compound in micrograms per test plate that gave positive mutagencity results.
(§2) From Pharmakon Research International, the Ames test data evaluation criteria in Table 5 are clearly defined: "In most tests with the Salmonella/Microsome Assay, results are either clearly positive or clearly negative. A positive result is defined as a reproducible, dose-related increase in the number of histidine-independent colonies. This dose-response relationship occasionally necessitates slight modification of the original doses in a repeat assay. If the historical control is within one standard deviation of the historical mean and the test chemical produces the highest increase equal to or greater than three times the solvent control value, the test chemical is considered positive. A negative result is defined as the absence of a reproducible increase in the number of histidine-independent colonies."

[3] = tested on: Salmonella strain TA1538; experiment: Ames mutagenic assay, strain TA1538; assay type: cell-based
Description: as §1, §2

[4] = tested on: Salmonella strain TA100; experiment: Ames mutagenic assay, strain TA100; assay type: cell-based
Description: as §1, §2

[5] = tested on: Salmonella strain TA1537; experiment: Ames mutagenic assay, strain (TA1537), without (-) and with (+) metabolic activation; assay type: cell-based; conditions: first strain column, TA1537 as printed
Description: as §1, §2

[6] = tested on: five strains of Salmonella bacteria; experiment: Ames test, overall outcome; assay type: cell-based; conditions: with and without metabolic activation
Description: as §1, §2

[7] = tested on: Salmonella strain TA1537; experiment: Ames mutagenic assay, second strain column (printed TA1537), without (-) and with (+) metabolic activation; assay type: cell-based; conditions: TA1537 as printed, (+) with metabolic activation
Description: as §1, §2

Cc1c(N)ccc(C(C)C)c1N [3iP26TDA, 3-isoPropyl-2,6-toluendiamine]
lineshape coefficient A (quasi reaction rate constant, initial reactivity) [1]: .5074

Cc1c(N)ccc(C2(C)CCCC2)c1N [3tMCp26TDA, 3-tertiaryMethylcyclopentyl-2,6-toluenediamine]
lineshape coefficient A (quasi reaction rate constant, initial reactivity) [1]: .1722

CCC(C)(C)c1ccc(N)c(C)c1N [3tA26TDA, 3-tertiaryAmyl-2,6-toluenediamine]
lineshape coefficient A (quasi reaction rate constant, initial reactivity) [1]: .08902

Cc1cc(N)c(N)c(C(C)(C)C)c1 [3tB34TDA, 5-tertiaryButyl-3,4-toluenediamine]
lineshape coefficient A (quasi reaction rate constant, initial reactivity) [1]: .2764

Cc1c(N)c(C(C)C)cc(C(C)C)c1N [35DiP26TDA, 3,5-Diisopropyl-2,6-toluenediamine]
lineshape coefficient A (quasi reaction rate constant, initial reactivity) [1]: 1.563

CC(C)(C)c1ccc(N)cc1N [tBBDA, tertiaryButyl-2,4-benzenediamine]
quantity of test compound that gave positive mutagenicity results [2]: 1800 micrograms per test plate
quantity of test compound that gave positive mutagenicity results [3]: 1200 micrograms per test plate

Cc1cc(C(C)C)c(N)cc1N [5iP24TDA, 5-isoPropyl-2,4-toluenediamine]
lineshape coefficient A (quasi reaction rate constant, initial reactivity) [1]: 3.374

chlorotoluenediamine [Cl-TDA]
quantity of test compound that gave positive mutagenicity results [2]: 500 micrograms per test plate
quantity of test compound that gave positive mutagenicity results [4]: 500 micrograms per test plate
quantity of test compound that gave positive mutagenicity results ([5]; (+) with metabolic activation): 50 micrograms per test plate
quantity of test compound that gave positive mutagenicity results ([5]; (-) without metabolic activation): 500 micrograms per test plate
Ames test result [6]: Ames positive
quantity of test compound that gave positive mutagenicity results [7]: 5000 micrograms per test plate
quantity of test compound that gave positive mutagenicity results [3]: 500 micrograms per test plate

Cc1cc(C(C)C)c(N)c(C(C)C)c1N [35DiP24TDA, 3.5-Diisopropyl-2,4-toluenediamine]
lineshape coefficient A (quasi reaction rate constant, initial reactivity) [1]: .7499

CCc1cc(C)c(N)c(CC)c1N [35DE24TDA, 3,5-Diethyl-2,4-toluenediamine]
lineshape coefficient A (quasi reaction rate constant, initial reactivity) [1]: 1.350

CCc1cc(CC)c(N)c(C)c1N [35DE26TDA, 3,5-Diethyl-2,6-toluenediamine]
lineshape coefficient A (quasi reaction rate constant, initial reactivity) [1]: 5.572

Cc1cc(C(C)(C)C)c(N)c(C)c1N [5tB24DAmX, 5-tertiaryButyl-2,4-diaminometaxylene]
lineshape coefficient A (quasi reaction rate constant, initial reactivity) [1]: .8716

3-Cyclopentenyl-2,6-toluenediamine [3Cp26TDA]
lineshape coefficient A (quasi reaction rate constant, initial reactivity) [1]: .7173

Cc1c(N)cc(C(C)(C)C)cc1N [4tB26TDA, 4-tertiaryButyl-2,6-toluenediamine]
lineshape coefficient A (quasi reaction rate constant, initial reactivity) [1]: 3.867
lineshape coefficient A (quasi reaction rate constant, initial reactivity) ([1]; listed as 4-tertiarybutyl-2,6-toluenediamine): 3.87

Cc1c(N)c(C(C)(C)C)cc(C(C)(C)C)c1N [35DtB26TDA, 3,5-Ditertiarybutyl-2,6-toluenediamine]
quantity of test compound that gave positive mutagenicity results [2]: 15 micrograms per test plate
quantity of test compound that gave positive mutagenicity results [4]: 50 micrograms per test plate
lineshape coefficient A (quasi reaction rate constant, initial reactivity) [1]: .1601
Ames test result [6]: Ames positive
quantity of test compound that gave positive mutagenicity results [3]: 50 micrograms per test plate

Cc1c(N)ccc(C(C)(C)C)c1N [3tB26TDA, 3-tert-butyl-2,6-toluenediamine]
lineshape coefficient A (quasi reaction rate constant, initial reactivity) [1]: .06721
lineshape coefficient A (quasi reaction rate constant, initial reactivity) ([1]; listed as Monotertiarybutylated 2,6-TDA): 0.06721
